Drawing on patent US20240317721A1, “PYRAZOLYL DERIVATIVES AS INHIBITORS OF THE KRAS MUTANT PROTEIN” (NOVARTIS AG, priority 2021, published 2024), this text covers IC50 for 28 compounds.

The structures appear in SMILES notation. Some results are limits rather than exact numbers.

The assay deals with KRasG12C (M1-K169, biotinylated on the N-terminus) (Homo sapiens (Human), UniProt P01116, G12C). The assay is described as follows: Covalent competition assay: scintillation proximity assay (SPA) quantifying covalent modification of KRASG12C. The format is binding. The note with it: competition with radiolabeled covalent probe (Compound B/Compound A), 2 hours incubation, 10 nM KRasG12C. The method, boiled down: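 Test compounds compete with a radiolabeled covalent probe for modification of N-terminally biotinylated KRasG12C(M1-K169):GDP, final 10 nM protein, 25 nM radio-ligand, 475 nM unlabelled ligand, 2 h with agitation in 20 mM Tris-HCl pH 7.5, 150 mM NaCl, 0.1 mM MgCl2, 0.01% Tween-20.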
For orientation: Scintillation proximity formats need no separation of bound from free tracer.
One may read the IC50 as the concentration needed to halve the response being measured. Turning to `C=CC(=O)N1CC2(CC(n3nc(N4CCN(CC5COCCOC5)C[C@]4(C)CC)c(-c4c(Cl)c(C)cc5[nH]ncc45)c3C)C2)C1` (single isomer, unassigned) [Example 186b], the IC50 worked out at 7 nM. For `C=CC(=O)N1CC2(CC(n3nc(N4CC5(CCOC5)C4)c(-c4c(Cl)c(Cl)cc5[nH]ncc45)c3C)C2)C1` (single isomer, unassigned) [Example 108a, 1-(6-(4-(5,6-dichloro-1H-indazol-4-yl)-5-methyl-3-(6-oxa-2-azaspiro[3.4]octan-2-yl)-1H-pyrazol-1-yl)-2-azaspiro[3.3]heptan-2-yl)prop-2-en-1-one] the value was more than 5000 nM; for `C=CC(=O)N1CC2(CC(n3nc(N4CCC(N5C6CCC5COC6)CC4(C)C)c(-c4c(Cl)c(C)cc5[nH]ncc45)c3C)C2)C1` [Example 75a, 1-(6-(3-(4-((1R,5S)-3-oxa-8-azabicyclo[3.2.1]octan-8-yl)-2,2-dimethylpiperidin-1-yl)-4-(5-chloro-6-methyl-1H-indazol-4-yl)-5-methyl-1H-pyrazol-1-yl)-2-azaspiro[3.3]heptan-2-yl)prop-2-en-1-one], more than 5000 nM. For the compound `C=CC(=O)N1CC2(CC(n3nc(N4CCN(C[C@@H]5COCCO5)C[C@]4(C)COC)c(-c4c(Cl)c(Cl)cc5[nH]ncc45)c3C)C2)C1` (single isomer, unassigned) [Example 182b], the IC50 was found to be 8 nM. As to `C=CC(=O)N1C[C@]2(C[C@H](n3nc(N4CC[C@@H](CN5CCN(C6COC6)CC5)CC4(C)C)c(-c4c(Cl)c(Cl)cc5[nH]ncc45)c3C)C2)[C@H]1C` (single isomer, unassigned) [Example 201a], the IC50 was 4300 nM. The value for `C=CC(=O)N1CC2(CC(n3nc(N4CCC(CN5CCN(C)CC5=O)CC4(C)C)c(-c4c(Cl)c(Cl)cc5[nH]ncc45)c3C)C2)C1` (single isomer, unassigned) [Example 240b, 1-((1-(1-(2-acryloyl-2-azaspiro[3.3]heptan-6-yl)-4-(5,6-dichloro-1H-indazol-4-yl)-5-methyl-1H-pyrazol-3-yl)-2,2-dimethylpiperidin-4-yl)methyl)-4-methylpiperazin-2-one] was 8 nM; that for `C=CC(=O)N1CC2(CC(n3nc(N4CCC(N5C6CCC5COC6)CC4(C)C)c(-c4c(Cl)c(C)cc5[nH]ncc45)c3C)C2)C1` (single isomer, unassigned) [Example 74b] was 26 nM. The value for `C=CC(=O)N1CC2(CC(n3nc(N4CCN(C5COC5)C[C@]4(C)CC)c(-c4c(Cl)c(C)cc5[nH]ncc45)c3C)C2)C1` (single isomer, unassigned) [Example 133b] was 5 nM; that for `C=CC(=O)N1CC2(CC(n3nc(N4CC[C@@H](CN5CCN6CCOC[C@@H]6C5)CC4(C)C)c(-c4c(Cl)c(Cl)cc5[nH]ncc45)c3C)C2)C1` (single isomer, unassigned) [Example 279a] was 3800 nM. Take `C=CC(=O)N1CC2(CC(n3nc(N4CCN(C5COC5)CC45CCOC5)c(-c4c(Cl)c(C)cc5[nH]ncc45)c3C)C2)C1` (single isomer, unassigned) [Example 142a, 1-(6-(4-(5-chloro-6-methyl-1H-indazol-4-yl)-5-methyl-3-(9-(oxetan-3-yl)-2-oxa-6,9-diazaspiro[4.5]decan-6-yl)-1H-pyrazol-1-yl)-2-azaspiro[3.3]heptan-2-yl)prop-2-en-1-one]: the IC50 came out at 204 nM. The value for `C=CC(=O)N1CC2(CC(n3nc(N4CCC(n5ccnc5)CC4(C)C)c(-c4c(Cl)c(C)cc5[nH]ncc45)c3C)C2)C1` (single isomer, unassigned) [Example 45b, 1-(6-(3-(4-(1H-imidazol-1-yl)-2,2-dimethylpiperidin-1-yl)-4-(5-chloro-6-methyl-1H-indazol-4-yl)-5-methyl-1H-pyrazol-1-yl)-2-azaspiro[3.3]heptan-2-yl)prop-2-en-1-one] was 1500 nM; that for `C=CC(=O)N1CC2(CC(n3nc(N4Cc5cnn(C)c5C4)c(-c4c(Cl)c(C)cc5[nH]ncc45)c3C)C2)C1` [Example 12, 1-(6-(4-(5-chloro-6-methyl-1H-indazol-4-yl)-5-methyl-3-(1-methyl-4,6-dihydropyrrolo[3,4-c]pyrazol-5(1H)-yl)-1H-pyrazol-1-yl)-2-azaspiro[3.3]heptan-2-yl)prop-2-en-1-one] was 1400 nM; that for `C=CC(=O)N1CC2(CC(n3nc(N4CCN(CCOC)CC45CCC5)c(-c4c(Cl)c(C)cc5[nH]ncc45)c3C)C2)C1` (single isomer, unassigned) [Example 71b, 1-(6-(4-(5-chloro-6-methyl-1H-indazol-4-yl)-3-(8-(2-methoxyethyl)-5,8-diazaspiro[3.5]nonan-5-yl)-5-methyl-1H-pyrazol-1-yl)-2-azaspiro[3.3]heptan-2-yl)prop-2-en-1-one] was 25 nM. The value for `C=CC(=O)N1CC2(CC(n3nc(N4CC[C@@H](CN5CC6(CCN(C7COC7)C6)C5)CC4(C)C)c(-c4c(Cl)c(Cl)cc5[nH]ncc45)c3C)C2)C1` (single isomer, unassigned) [Example 267b] was 7 nM; that for `C=CC(=O)N1CC2(CC(n3nc(N4CC[C@@H](CN5CCN6C(=O)COC[C@@H]6C5)CC4(C)C)c(-c4c(Cl)c(Cl)cc5[nH]ncc45)c3C)C2)C1` (single isomer, unassigned) [Example 275b] was 7 nM. For `C=CC(=O)N1CC2(CC(n3nc(N4CCC(CN5CC6CC(C5)O6)CC4(C)C)c(-c4c(Cl)c(Cl)cc5[nH]ncc45)c3C)C2)C1` (single isomer, unassigned) [Example 228b, 1-(6-(3-(4-((6-oxa-3-azabicyclo[3.1.1]heptan-3-yl)methyl)-2,2-dimethylpiperidin-1-yl)-4-(5,6-dichloro-1H-indazol-4-yl)-5-methyl-1H-pyrazol-1-yl)-2-azaspiro[3.3]heptan-2-yl)prop-2-en-1-one] the value was 281 nM; for `C=CC(=O)N1CC2(CC(n3nc(N4CC[C@@H](CN5CC6(CCN(C(C)=O)C6)C5)CC4(C)C)c(-c4c(Cl)c(Cl)cc5[nH]ncc45)c3C)C2)C1` (single isomer, unassigned) [Example 268a], 789 nM.

As to `C=CC(=O)N1CC2(CC(n3nc(N4CCC(CN5CC6CC(C5)O6)CC4(C)C)c(-c4c(Cl)c(Cl)cc5[nH]ncc45)c3C)C2)C1` (single isomer, unassigned) [Example 229a, 1-(6-(3-(4-((6-oxa-3-azabicyclo[3.1.1]heptan-3-yl)methyl)-2,2-dimethylpiperidin-1-yl)-4-(5,6-dichloro-1H-indazol-4-yl)-5-methyl-1H-pyrazol-1-yl)-2-azaspiro[3.3]heptan-2-yl)prop-2-en-1-one], the IC50 was more than 5000 nM.

Regarding `C=CC(=O)N1CC2(CC(n3nc(N4CC[C@@H](CN5CCN6C(=O)N(C)CC6C5)CC4(C)C)c(-c4c(Cl)c(Cl)cc5[nH]ncc45)c3C)C2)C1` (single isomer, unassigned) [Example 263a], the IC50 is more than 5000 nM. For `C=CC(=O)N1CC2(CC(n3nc(N4CCN(CCO)CC4(C)C)c(-c4c(Cl)c(C)cc5[nH]ncc45)c3C)C2)C1` (single isomer, unassigned) [Example 163a, 1-(6-(4-(5-chloro-6-methyl-1H-indazol-4-yl)-3-(4-(2-hydroxyethyl)-2,2-dimethylpiperazin-1-yl)-5-methyl-1H-pyrazol-1-yl)-2-azaspiro[3.3]heptan-2-yl)prop-2-en-1-one] the value was more than 5000 nM. `C=CC(=O)N1CC2(CC(n3nc(N4CC[C@@H](CN5CCN(C6COC6)CC5)CC4(C)C)c(-c4c(Cl)c(C)cc5[nH]ncc45)c3C)C2)C1` (single isomer, unassigned) [Example 246a]: the IC50 is more than 5000 nM. The value for `C=CC(=O)N1CC2(CC(n3nc(N4CCN(C5COC5)CC45CCC5)c(-c4c(Cl)c(Cl)cc5[nH]ncc45)c3C)C2)C1` (single isomer, unassigned) [Example 72b] was 7 nM. For `C=CC(=O)N1CC2(CC(n3nc(N4CCC5(CN(C6COC6)C5)CC4(C)C)c(-c4c(Cl)c(C)cc5[nH]ncc45)c3C)C2)C1` (single isomer, unassigned) [Example 91b, 1-(6-(4-(5-chloro-6-methyl-1H-indazol-4-yl)-3-(6,6-dimethyl-2-(oxetan-3-yl)-2,7-diazaspiro[3.5]nonan-7-yl)-5-methyl-1H-pyrazol-1-yl)-2-azaspiro[3.3]heptan-2-yl)prop-2-en-1-one] the value was 13 nM; for `C=CC(=O)N1CC2(CC(n3nc(N4CC[C@H](N(C)C(C)=O)CC4(C)C)c(-c4c(Cl)c(C)cc5[nH]ncc45)c3C)C2)C1` (single isomer, unassigned) [Example 70a], 287 nM; for `C=CC(=O)N1CC2(CC(n3nc(N4CCN(CC5COCCOC5)CC45CCC5)c(-c4c(Cl)c(C)cc5[nH]ncc45)c3C)C2)C1` (single isomer, unassigned) [Example 185a, 1-(6-(3-(8-((1,4-dioxepan-6-yl)methyl)-5,8-diazaspiro[3.5]nonan-5-yl)-4-(5-chloro-6-methyl-1H-indazol-4-yl)-5-methyl-1H-pyrazol-1-yl)-2-azaspiro[3.3]heptan-2-yl)prop-2-en-1-one], 4100 nM. For `C=CC(=O)N1CC2(CC(n3nc(N4CC[C@@H](CN5CCOC6(C5)CN(C(C)=O)C6)CC4(C)C)c(-c4c(Cl)c(Cl)cc5[nH]ncc45)c3C)C2)C1` (single isomer, unassigned) [Example 311b] the value was 18 nM.

`C=CC(=O)N1CC2(CC(n3nc(N4CCN(C(C)(C)CO)CC45CCC5)c(-c4c(Cl)c(C)cc5[nH]ncc45)c3C)C2)C1` (single isomer, unassigned) [Example 190b, 1-(6-(4-(5-Chloro-6-methyl-1H-indazol-4-yl)-3-(8-(1-hydroxy-2-methylpropan-2-yl)-5,8-diazaspiro[3.5]nonan-5-yl)-5-methyl-1H-pyrazol-1-yl)-2-azaspiro[3.3]heptan-2-yl)prop-2-en-1-one]: the IC50 worked out at 111 nM. For the compound `C=CC(=O)N1CC2(CC(n3nc(N4CC[C@@H](CN5CC6(CCN(S(C)(=O)=O)C6)C5)CC4(C)C)c(-c4c(Cl)c(Cl)cc5[nH]ncc45)c3C)C2)C1` (single isomer, unassigned) [Example 297b], the IC50 stood at 9 nM.
